Experimental data as given in US12540143B2, “Methods and compositions for targeted protein degradation” (Ranok Therapeutics (Hangzhou) Co. Ltd., priority 2019, dated 2026).

Experiments:
[1] = target: EP300 (Homo sapiens, UniProt Q09472); assay: Bromodomain Binding Assay; conditions: 10 μM Compound 074, read-out: Bromodomain Binding % of Control
[2] = target: T1, TRIM133 (Homo sapiens, UniProt Q9UPN9); assay: Bromodomain Binding Assay; conditions: 10 μM Compound 074, read-out: Bromodomain Binding % of Control
T1 construct: made in house; host or cells: T7 phage grown in E. coli host derived from BL21

[3] = target: T2, KAT2B (Homo sapiens, UniProt Q92831); assay: Bromodomain Binding Assay; conditions: 10 μM Compound 074, read-out: Bromodomain Binding % of Control
T2 construct: made in house; host or cells: T7 phage grown in E. coli host derived from BL21

[4] = target: BRD3 BD2 (Homo sapiens, UniProt Q15059); assay: Bromodomain Binding Assay; conditions: 10 μM Compound 074, read-out: Bromodomain Binding % of Control
[5] = target: BRD1 (Homo sapiens, UniProt O95696); assay: Bromodomain Binding Assay; conditions: 10 μM Compound 074, read-out: Bromodomain Binding % of Control
[6] = target: BAZ2A (Homo sapiens, UniProt Q9UIF9); assay: Bromodomain Binding Assay; conditions: 10 μM Compound 074, read-out: Bromodomain Binding % of Control
[7] = target: PBRM1 BD2 (Homo sapiens, UniProt Q86U86); assay: Bromodomain Binding Assay; conditions: 10 μM Compound 074, read-out: Bromodomain Binding % of Control
[8] = system: MV4-11 acute myeloid leukemia xenograft; assay: MV4-11 AML xenograft model in mice; conditions: for tumor growth inhibition (FIG. 3a): after 3 weeks of dosing
Method: MV4-11 cells were plated in a 96-well tissue culture plate at a density of 4,500 cells/90 μL/well and incubated at 37° C./5% CO2 for 24 hr. Cells were then treated with compounds at various concentrations (a 10-point, 3-fold serial dilution series starting at 20 μM) with a final concentration of 0.5% DMSO/well and then incubated in 37° C./5% CO2 for 72 hr. 10 μL the cell proliferation reagent CCK-8 (WST-8) was added into each well and incubated at 37° C./5% CO2 for 3-4 hr and the absorbance at 450 nm measured with an En Vision Plate Reader.
MV4-11 acute myeloid leukemia and SU-DHL-4 diffuse large B-cell lymphoma (ATCC, #CRL-2957) cells were cultured in medium supplemented with 10% fetal bovine serum at 37° C./5% CO2. 5×10^6 MV-4-11 or 1×10^7 SU-DHL-4 cells were collected and re-suspended in 0.1 mL of serum-free media with Matrigel (1:1 v/v) per mouse for subcutaneous inoculation in isoflurane anesthetized male BALB/c nude or C.B-17 scid mice, respectively (treated in accordance with AAALAC animal welfare guidelines). When the average tumor volumes reached 100-200 mm^3, tumor volume outliers were removed and the remaining animals randomly divided into groups of 6-8 with similar average tumor volumes in each group. […] The appearance and behavior of each mouse was observed and recorded daily. Body weights and tumor volumes were measured and recorded every 2-4 days and the results were expressed as group means±SEM. Pairwise statistical comparisons between groups were performed by one-way ANOVA, and p<0.05 was considered statistically significant.

[9] = system: SU-DHL-4 diffuse large B-cell lymphoma xenograft; assay: SU-DHL-4 DLBCL xenograft model in mice
Method: 10 μL the cell proliferation reagent CCK-8 (WST-8) was added into each well and incubated at 37° C./5% CO2 for 3-4 hr and the absorbance at 450 nm measured with an En Vision Plate Reader.
5×10^6 MV-4-11 or 1×10^7 SU-DHL-4 cells were collected and re-suspended in 0.1 mL of serum-free media with Matrigel (1:1 v/v) per mouse for subcutaneous inoculation in isoflurane anesthetized male BALB/c nude or C.B-17 scid mice, respectively (treated in accordance with AAALAC animal welfare guidelines). When the average tumor volumes reached 100-200 mm^3, tumor volume outliers were removed and the remaining animals randomly divided into groups of 6-8 with similar average tumor volumes in each group. […] Animals were intravenously dosed at 25 mg/kg, 50 mg/kg or 100 mg/kg 1×/week for 3 or 4 weeks. The appearance and behavior of each mouse was observed and recorded daily. Body weights and tumor volumes were measured and recorded every 2-4 days and the results were expressed as group means±SEM. Pairwise statistical comparisons between groups were performed by one-way ANOVA, and p<0.05 was considered statistically significant.

[10] = target: ATAD2B (Homo sapiens, UniProt Q9ULI0); assay: Bromodomain Binding Assay; conditions: 10 μM Compound 074, read-out: Bromodomain Binding % of Control
[11] = target: T3, TAF1 BD2 (Homo sapiens, UniProt P21675); assay: Bromodomain Binding Assay; conditions: 10 μM Compound 074, read-out: Bromodomain Binding % of Control
T3 construct: made in house; host or cells: T7 phage grown in E. coli host derived from BL21

[12] = target: BRD3 BD1 (Homo sapiens, UniProt Q15059); assay: Bromodomain Binding Assay; conditions: 10 μM Compound 074, read-out: Bromodomain Binding % of Control
[13] = target: BRD2 BD2 (Homo sapiens, UniProt P25440); assay: Bromodomain Binding Assay; conditions: 10 μM Compound 074, read-out: Bromodomain Binding % of Control
[14] = target: CECR2 (Homo sapiens, UniProt Q9BXF3); assay: Bromodomain Binding Assay; conditions: 10 μM Compound 074, read-out: Bromodomain Binding % of Control
[15] = target: BRD9 (Homo sapiens, UniProt Q9H8M2); assay: Bromodomain Binding Assay; conditions: 10 μM Compound 074, read-out: Bromodomain Binding % of Control
[16] = target: BRDT BD1 (Homo sapiens, UniProt Q58F21); assay: Bromodomain Binding Assay; conditions: 10 μM Compound 074, read-out: Bromodomain Binding % of Control
[17] = target: BRD2 BD1 (Homo sapiens, UniProt P25440); assay: Bromodomain Binding Assay; conditions: 10 μM Compound 074, read-out: Bromodomain Binding % of Control
[18] = target: BPTF (Homo sapiens, UniProt Q12830); assay: Bromodomain Binding Assay; conditions: 10 μM Compound 074, read-out: Bromodomain Binding % of Control
[19] = target: BRD4 BD2 (Homo sapiens, UniProt O60885); assay: Bromodomain Binding Assay; conditions: 10 μM Compound 074, read-out: Bromodomain Binding % of Control
[20] = 100 mg/kg intravenous 1×/week, after 4 weeks of dosing

T2 sequence (Q92831 723-827 limits assumed): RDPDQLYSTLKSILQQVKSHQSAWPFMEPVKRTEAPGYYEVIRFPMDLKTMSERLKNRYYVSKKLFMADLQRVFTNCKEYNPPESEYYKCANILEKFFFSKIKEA
CECR2, sequence (Q9BXF3 434-538 limits assumed): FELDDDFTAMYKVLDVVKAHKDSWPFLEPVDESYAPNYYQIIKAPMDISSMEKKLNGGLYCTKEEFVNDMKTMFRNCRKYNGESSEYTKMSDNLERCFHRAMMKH
BRD2 BD2, sequence (P25440 344-453 limits assumed): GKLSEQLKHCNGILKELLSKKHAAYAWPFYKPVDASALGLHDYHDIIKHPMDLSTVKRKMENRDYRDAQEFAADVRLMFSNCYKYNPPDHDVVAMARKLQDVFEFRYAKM
BRD9, sequence (Q9H8M2 136-240 limits assumed): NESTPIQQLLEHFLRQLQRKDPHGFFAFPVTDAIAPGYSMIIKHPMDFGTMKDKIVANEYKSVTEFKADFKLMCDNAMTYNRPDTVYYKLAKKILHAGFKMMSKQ
T1 sequence (Q9UPN9 957-1080 limits assumed): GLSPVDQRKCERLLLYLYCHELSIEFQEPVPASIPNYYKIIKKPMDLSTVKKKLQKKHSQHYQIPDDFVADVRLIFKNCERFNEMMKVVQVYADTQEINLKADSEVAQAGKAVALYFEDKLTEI
BRD3 BD2, sequence (Q15059 306-415 limits assumed): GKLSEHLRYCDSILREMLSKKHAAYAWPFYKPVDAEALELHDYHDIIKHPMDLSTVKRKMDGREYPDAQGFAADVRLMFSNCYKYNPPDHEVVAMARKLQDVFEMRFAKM
PBRM1 BD2, sequence (Q86U86 177-287 limits assumed): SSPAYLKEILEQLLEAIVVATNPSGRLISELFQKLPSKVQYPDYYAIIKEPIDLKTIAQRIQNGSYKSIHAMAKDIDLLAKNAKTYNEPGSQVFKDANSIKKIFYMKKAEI
EP300, sequence (Q09472 1049-1156 limits assumed): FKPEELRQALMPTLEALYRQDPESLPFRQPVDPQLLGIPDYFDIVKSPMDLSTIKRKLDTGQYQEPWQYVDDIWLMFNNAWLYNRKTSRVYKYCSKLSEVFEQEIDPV
BRD2 BD1, sequence (P25440 74-180 limits assumed): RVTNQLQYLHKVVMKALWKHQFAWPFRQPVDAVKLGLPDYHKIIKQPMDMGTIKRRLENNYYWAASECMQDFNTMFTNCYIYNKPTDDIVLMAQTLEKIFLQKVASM
BAZ2A, sequence (Q9UIF9 1793-1897 limits assumed): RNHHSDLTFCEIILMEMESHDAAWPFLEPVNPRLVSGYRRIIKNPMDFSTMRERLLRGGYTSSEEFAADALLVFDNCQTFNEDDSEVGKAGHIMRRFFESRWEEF
BRD3 BD1, sequence (Q15059 34-140 limits assumed): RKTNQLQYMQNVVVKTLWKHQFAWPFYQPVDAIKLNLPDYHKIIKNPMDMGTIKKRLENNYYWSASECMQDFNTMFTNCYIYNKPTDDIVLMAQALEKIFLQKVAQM
BRD1, sequence (O95696 562-666 limits assumed): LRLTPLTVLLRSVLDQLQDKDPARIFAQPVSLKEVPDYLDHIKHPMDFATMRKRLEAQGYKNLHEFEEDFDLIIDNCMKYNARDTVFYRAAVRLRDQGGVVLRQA
T3 sequence (P21675 1519-1628 limits assumed): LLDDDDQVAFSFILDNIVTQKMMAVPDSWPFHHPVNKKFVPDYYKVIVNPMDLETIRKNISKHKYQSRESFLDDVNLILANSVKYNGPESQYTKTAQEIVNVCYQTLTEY
ATAD2B, sequence (Q9ULI0 951-1066 limits assumed): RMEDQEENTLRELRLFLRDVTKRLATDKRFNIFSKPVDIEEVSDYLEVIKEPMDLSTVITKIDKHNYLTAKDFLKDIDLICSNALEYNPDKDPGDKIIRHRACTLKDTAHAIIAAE

Question: For `Cc1sc2c(c1C)C(c1ccc(Cl)cc1)=N[C@@H](CC(=O)N1CCC(CN3CCN(Cc4ccc(-n5c(O)nnc5-c5cc(C(C)C)c(O)cc5O)cc4)CC3)CC1)c1nnc(C)n1-2.Cl` [Compound 74, (S)-2-(4-(4-chlorophenyl)-2,3,9-trimethyl-6H-thieno[3,2-f][1,2,4]triazolo[4,3-a][1,4]diazepin-6-yl)-1-(4-((4-(4-(3-(2,4-dihydroxy-5-isopropylphenyl)-5-hydroxy-4H-1,2,4-triazol-4-yl)benzyl)piperazin-1-yl)methyl)piperidin-1-yl)ethan-1-one hydrochloride], which remaining activity at 10 µM [1] is on record?
Answer: 11 to 75%

Question: And the remaining activity at 10 µM [2]?
Answer: > 75%

Question: And the remaining activity at 10 µM [3]?
Answer: > 75%

Question: And the remaining activity at 10 µM [4]?
Answer: < 10%

Question: And the remaining activity at 10 µM [5]?
Answer: > 75%

Question: And the remaining activity at 10 µM [6]?
Answer: > 75%

Question: What about the remaining activity at 10 µM [7] of the same compound?
Answer: > 75%

Question: And the “animals tumor free at the end of the study” value ([8]; 50 mg/kg intravenous 1×/week)?
Answer: 1 out of 6

Question: And the “tumor growth inhibition (FIG. 3a)” value ([8]; 50 mg/kg intravenous 1×/week)?
Answer: significant tumor growth inhibition

Question: And the “animals tumor free at the end of the study” value ([8]; 100 mg/kg intravenous 1×/week)?
Answer: 4 out of 6

Question: What about the “tumor growth inhibition (FIG. 3a)” value ([8]; 100 mg/kg intravenous 1×/week) of the same compound?
Answer: significant tumor growth inhibition

Question: What about the “animal deaths and body weights (FIG. 3b)” value ([8]; any group, MV4-11 xenograft) of the same compound?
Answer: No animal deaths or significant effects on body weights were observed

Question: What about the “tumor growth inhibition (FIG. 4a)” value [9, 20] of the same compound?
Answer: significant tumor growth inhibition

Question: And the “tumor vs control (T/C) value” [9, 20]?
Answer: 41%

Question: What about the “animal deaths and body weights (FIG. 4b)” value ([9]; any dose level, SU-DHL-4 xenograft) of the same compound?
Answer: No animal deaths or significant effects on body weights were observed

Question: And the remaining activity at 10 µM [10]?
Answer: > 75%

Question: What about the remaining activity at 10 µM [11] of the same compound?
Answer: > 75%

Question: And the remaining activity at 10 µM [12]?
Answer: < 10%

Question: And the remaining activity at 10 µM [13]?
Answer: < 10%

Question: What about the remaining activity at 10 µM [14] of the same compound?
Answer: > 75%

Question: And the remaining activity at 10 µM [15]?
Answer: > 75%

Question: What about the remaining activity at 10 µM [16] of the same compound?
Answer: < 10%

Question: And the remaining activity at 10 µM [17]?
Answer: < 10%

Question: What about the remaining activity at 10 µM [18] of the same compound?
Answer: > 75%

Question: And the remaining activity at 10 µM [19]?
Answer: < 10%
